This experiment deals with IFNγ-Induced NO Production in RAW 264.7 cells. Kind of experiment: Nitric Oxide Suppression Assay (suppression of IFNγ-induced NO production). In kind it is cell-based. The following applies: RAW264.7; RAW 264.7 mouse macrophage cells, 20 ng/mL interferon gamma, Griess detection; single curve fit to mean data of n=2-3. The protocol:
RAW 264.7, a mouse macrophage cell line, was obtained from American Type Culture Collection (Manassas Va.) and maintained in the log phase of growth in Dulbecco's Modified Eagle's Medium (DMEM), 10% heat inactivated fetal calf serum and 100 units/mL antibiotic-antimycotic (AA). Cells were cultured and maintained in a humidified incubator at 37° C. under 5% CO2 and 95% air. Cells were sub-cultured every 3 days by scraping and were not used beyond passage 20. All cell culture supplies were obtained from Life Technologies (Grand Island, N.Y.).
RAW 264.7 cells were plated 1 day in advance of experiment at a concentration of 80,000 cells/well onto CellBIND® 96 well plates (Corning, N.Y.) in a total volume of 100 μL. The next day, pre-treat cells with compounds (from 3 μM to 0.3 nM serially diluted in a 10 point curve) from a 10× stock by adding 10 μL per well in complete DMEM media containing 10% fetal calf serum. The plates were centrifuged for 3 minutes at 400×g at room temperature followed by 2 hour incubation at 37° C. The cells were then incubated overnight at 37° C. with 10 μL of the insult, interferon gamma (R&D Systems, Minneapolis, Minn.), from a 10× stock for a final concentration of 20 ng/mL. The plates were centrifuged for 3 minutes at 400×g at room temperature followed by 18 hour incubation at 37° C. The following day, transfer 50 μL cell culture supernatant from each well into a clear bottom 96 well plate and follow the instructions from Promega's Griess Detection Kit #G2930 (Madison, Wis.) which involves the addition of 50 μL of the provided sulfanilamide solution for a 5-10 minute incubation at room temperature. Next add 50 μL of the provided N-1-napthylethylenediamine dihydrochloride (NED) solution for a 5-10 minute incubation at room temperature and protected from light. If any air bubbles were introduced into the well, the plates need to be centrifuged for 5 minutes at 400×g at room temperature to avoid interference with absorbance readings. The plates were read for absorbance within 30 minutes with a filter between 520 nm and 550 nm.
For the ability of compounds to suppress the increase in nitric oxide release, the percent maximal intensity of nitric oxide detected in each well was normalized to that induced by the peak value for 20 ng/mL of interferon gamma alone and plotted against the compound concentration to calculate IC50 values and to control for plate-to-plate variability. Concentration-response data were analyzed using GraphPad Prism (San Diego, Calif.); the IC50 values were derived from a single curve fit to the mean data of n=2-3, in duplicates.
All compounds were dissolved in dimethyl sulfoxide at 10 mM stock solutions and tested at a concentration that the dimethyl sulfoxide levels never exceeded 1%.

With `CC1(C)C(=O)C(C#N)=C[C@]2(C)C3=CC(=O)[C@]4(O)[C@@H]5C[C@@](C)(C(=O)NCc6ccno6)CC[C@]5(C)CC[C@@]4(C)[C@]3(C)CC[C@@H]12` [Example 30, (2S,4aS,6aS,6bR,8aR,12aS,14aS,14bR)-11-cyano-14a-hydroxy-2,4a,6a,6b,9,9,12a-heptamethyl-N-(1,2-oxazol-5-ylmethyl)-10,14-dioxo-1,2,3,4,4a,5,6,6a,6b,7,8,8a,9,10,12a,14,14a,14b-octadecahydropicene-2-carboxamide], half-maximal inhibition (IC50) required 12.4 nM.

For the molecule `CC1(C)C(=O)C(C#N)=C[C@]2(C)C3=CC(=O)[C@]4(O)[C@@H]5C[C@@](C)(C(=O)N6CCCC6)CC[C@]5(C)CC[C@@]4(C)[C@]3(C)CC[C@@H]12` [Example 31, (4aR,6aR,6bS,8aS,11S,12aR,12bS,14bS)-12b-hydroxy-4,4,6a,6b,8a,11,14b-heptamethyl-3,13-dioxo-11-(pyrrolidin-1-ylcarbonyl)-3,4,4a,5,6,6a,6b,7,8,8a,9,10,11,12,12a,12b,13,14b-octadecahydropicene-2-carbonitrile], the IC50 was determined as 19.3 nM.

The molecule `CC(C)CNC(=O)[C@@]1(C)CC[C@]2(C)CC[C@@]3(C)[C@]4(C)CC[C@H]5C(C)(C)C(=O)C(C#N)=C[C@]5(C)C4=CC(=O)[C@]3(O)[C@@H]2C1` [Example 32, (2S,4aS,6aS,6bR,8aR,12aS,14aS,14bR)-11-cyano-14a-hydroxy-N-isobutyl-2,4a,6a,6b,9,9,12a-heptamethyl-10,14-dioxo-1,2,3,4,4a,5,6,6a,6b,7,8,8a,9,10,12a,14,14a,14b-octadecahydropicene-2-carboxamide] registered a half-inhibitory concentration (IC50) of 8.8 nM.

`CCC(C)CNC(=O)[C@@]1(C)CC[C@]2(C)CC[C@@]3(C)[C@]4(C)CC[C@H]5C(C)(C)C(=O)C(C#N)=C[C@]5(C)C4=CC(=O)[C@]3(O)[C@@H]2C1` (stereo partly drawn) [Example 33, (2S,4aS,6aS,6bR,8aR,12aS,14aS,14bR)-11-cyano-14a-hydroxy-2,4a,6a,6b,9,9,12a-heptamethyl-N-(2-methylbutyl)-10,14-dioxo-1,2,3,4,4a,5,6,6a,6b,7,8,8a,9,10,12a,14,14a,14b-octadecahydropicene-2-carboxamide] gave an IC50 of 43.7 nM.

With `COCCNC(=O)[C@@]1(C)CC[C@]2(C)CC[C@]3(C)[C@H](C(=O)C=C4[C@@]5(C)C=C(C#N)C(=O)C(C)(C)[C@@H]5CC[C@]43C)[C@@H]2C1` [Example 34, (2S,4aS,6aR,6bS,8aR,12aS,14aR,14bS)-11-cyano-N-(2-methoxyethyl)-2,4a,6a,6b,9,9,12a-heptamethyl-10,14-dioxo-1,2,3,4,4a,5,6,6a,6b,7,8,8a,9,10,12a,14,14a,14b-octadecahydropicene-2-carboxamide], 3 nM corresponded to half-maximal inhibition (IC50).

Consider `CC1(C)C(=O)C(C#N)=C[C@]2(C)C3=CC(=O)[C@@H]4[C@@H]5C[C@@](C)(C(=O)NCc6ccco6)CC[C@]5(C)CC[C@@]4(C)[C@]3(C)CC[C@@H]12` [Example 35, (2S,4aS,6aR,6bS,8aR,12aS,14aR,14bS)-11-cyano-N-(2-furylmethyl)-2,4a,6a,6b,9,9,12a-heptamethyl-10,14-dioxo-1,2,3,4,4a,5,6,6a,6b,7,8,8a,9,10,12a,14,14a,14b-octadecahydropicene-2-carboxamide], for which the IC50 came out at 13.8 nM.

In turn, `CC1(C)C(=O)C(C#N)=C[C@]2(C)C3=CC(=O)[C@@H]4[C@@H]5C[C@@](C)(C(=O)NC6CCCCC6)CC[C@]5(C)CC[C@@]4(C)[C@]3(C)CC[C@@H]12` [Example 36, (2S,4aS,6aR,6bS,8aR,12aS,14aR,14bS)-11-cyano-N-cyclohexyl-2,4a,6a,6b,9,9,12a-heptamethyl-10,14-dioxo-1,2,3,4,4a,5,6,6a,6b,7,8,8a,9,10,12a,14,14a,14b-octadecahydropicene-2-carboxamide] returned a half-maximal inhibitory concentration (IC50) of 142 nM.

As for `COCC(COC)NC(=O)[C@@]1(C)CC[C@]2(C)CC[C@]3(C)[C@H](C(=O)C=C4[C@@]5(C)C=C(C#N)C(=O)C(C)(C)[C@@H]5CC[C@]43C)[C@@H]2C1` [Example 37, (2S,4aS,6aR,6bS,8aR,12aS,14aR,14bS)-11-cyano-N-(1,3-dimethoxypropan-2-yl)-2,4a,6a,6b,9,9,12a-heptamethyl-10,14-dioxo-1,2,3,4,4a,5,6,6a,6b,7,8,8a,9,10,12a,14,14a,14b-octadecahydropicene-2-carboxamide], half-maximal inhibition (IC50) was put at 15.8 nM.

Turning to `Cn1cc(CNC(=O)[C@@]2(C)CC[C@]3(C)CC[C@]4(C)[C@H](C(=O)C=C5[C@@]6(C)C=C(C#N)C(=O)C(C)(C)[C@@H]6CC[C@]54C)[C@@H]3C2)cn1` [Example 38, (2S,4aS,6aR,6bS,8aR,12aS,14aR,14bS)-11-cyano-2,4a,6a,6b,9,9,12a-heptamethyl-N-[(1-methyl-1H-pyrazol-4-yl)methyl]-10,14-dioxo-1,2,3,4,4a,5,6,6a,6b,7,8,8a,9,10,12a,14,14a,14b-octadecahydropicene-2-carboxamide], the IC50 came to 6.8 nM.

Molecule `CC1(C)C(=O)C(C#N)=C[C@]2(C)C3=CC(=O)[C@@H]4[C@@H]5C[C@@](C)(C(=O)NCc6cnco6)CC[C@]5(C)CC[C@@]4(C)[C@]3(C)CC[C@@H]12` [Example 39, (2S,4aS,6aR,6bS,8aR,12aS,14aR,14bS)-11-cyano-2,4a,6a,6b,9,9,12a-heptamethyl-N-(1,3-oxazol-5-ylmethyl)-10,14-dioxo-1,2,3,4,4a,5,6,6a,6b,7,8,8a,9,10,12a,14,14a,14b-octadecahydropicene-2-carboxamide] yielded an IC50 of 5.7 nM.

`COC(=O)[C@]12CCC(C)(C)C[C@H]1[C@H]1C(=O)C=C3[C@@]4(C)C=C(C#N)C(=O)C(C)(C)[C@@H]4CC[C@@]3(C)[C@]1(C)CC2` [bardoxolone methyl, reference compound]: the IC50 was 29 nM.

The IC50 is the point on the concentration scale where inhibition reaches its midpoint.

The record behind these values is patent publication US20140073700A1, “[…] ACID DERIVATIVES AND METHODS OF USE THEREOF” (AbbVie Inc., priority 2012, published 2014).
